The record followed here is article PMC5974752, “Bax/Tubulin/Epithelial-Mesenchymal Pathways Determine the Efficacy of Silybin Analog HM015k in Colorectal Cancer Cell Growth and Metastasis” (Frontiers in Pharmacology, 2018).

One assay has as its system S1. Kind of assay: MTT assay. The assay is classed as cell-based. The following applies: Homo sapiens, 72 h incubation, mean ± SD of three experiments, read-out: IC50 ± SD, Colon S1. As to the method:
(§1) The 3-(4,5-dimethylthiazol-2-yl)-2,5-diphenyltetrazolium bromide (MTT) assay was used to determine the sensitivity of the different CRC cells to the novel silybin derivatives (Hussein et al., [2017]; Manivannan et al., [2017]). The cells were seeded at a density of 4,000–5,000 cells/well in 96 well plates and incubated with serial dilutions of the compounds (0, 0.1, 0.3, 1, 3, 10, 30, and 100 μM). The MTT dye (4 mg/ml) was added after 72 h of incubation and incubated with the cells for an additional 4 h at 37°C. Following incubation, the media was discarded and the formazan crystals were dissolved by adding 100 μL of DMSO to each well. A DTX 880 multimode detector (Beckman Coulter Life, Indianapolis IN, USA) was used to determine the absorbance readings at a wavelength of 570 nm. The IC50 values were determined based on 3 separate experiments, with each experiment done in triplicate. The selectivity of the compounds was determined by comparing their cytotoxicity for CRC to normal epithelial cell lines (CHO, and CRL1459).
Background: Tetrazolium dyes change colour on reduction, which living cells bring about.

A further assay deals with LOVO. Kind of assay: MTT assay. The following applies: Homo sapiens, 72 h incubation, mean ± SD of three experiments, read-out: IC50 ± SD, Colon LOVO. The assay is classed as cell-based. The procedure:
as §1

Assay [1] has as its system HCT116 cells. Kind of assay: Colony formation assay. It counts as cell-based, human. As to conditions: 2 and 4 μM, 12 h incubation, colonies 10–14 days, vs vehicle control. As to the method: In this assay, HCT116 cells were seeded in 6 well plates at a density of 250,000 cells/plate and allowed to grow overnight. Compounds 15j and 15k (0, 2 or 4 μM) were added the following day. After 12 h of incubation, the medium was discarded and cells were trypsinized with 0.25% trypsin, 2.21 mM EDTA, 1X, harvested, counted and reseeded in 6 well plates at a low density (500 cell/well). The cells were allowed to form colonies for 10–14 days at 37°C, with the medium being changed every other day. Subsequently, methanol was used to fix the colonies formed in each plate, followed by dyeing the colonies with 0.1% crystal violet dye for 30 min. Finally, colonies were viewed and counted under an EVOS microscope (Themo Fisher Scientific, Wayne, MI, USA). The colony formation rate equation was applied for each compound: Colony formation rate = number of colonies/number of seeded cells × 100 %.

The test system of a further assay is HCT116 cell. Kind of assay: Cell morphology (EMT reversal). The assay is classed as cell-based, human. As to conditions: HCT116 after incubation with 15k. As to the method:
The aberrant, over-activation of embryonic signaling pathways, including Wnt/β-catenin/epithelial-mesenchymal transition (EMT), is involved in the development, progression, metastasis, and resistance of CRC (Du and Shim, [2016]). […] To test this hypothesis, the morphology of HCT116 cell was observed following incubation with 15k. […] We then determined the efficacy of compound 15k on the expression of (1) β-catenin; (2) E-cadherin, and (3) N-cadherin in CRC cells.

In assay [2] the test system is HCT116 cells. The assay is described as follows: Detection of reactive oxygen species (H2DCF-DA). It counts as cell-based, human. As to conditions: 1, 2 and 4 μM, 24 and 48 h, vs vehicle. The procedure: H2DCF-DA was used as previously described (Amawi et al., [2017c]). The cells that had been incubated with the test compound were further incubated with 3 μM of the H2DCF-DA working solution for 30 min at 37°C. The fluorescence level of oxidized DCF (excitation at 485 nm and emission at 535 nm) was detected under EVOS digital fluorescent microscope at 40x.

In the next assay the test system is Bcl-2. The assay is described as follows: Western blot in HCT116 cells. It counts as cell-based, human. As to conditions: 4 μM, overnight, p < 0.05. As to the method: (§2) HCT116 cells were lysed to obtain cytoplasmic and nuclear protein fractions, according to the protocol used in previous publications (Alhadidi and Shah, [2017]). Briefly, the cells were seeded in and incubated with 15k for overnight at 4μM. The cells were washed using ice-cold PBS and scraped using a cell scraper and collected in 15ml tubes. The cells were centrifuged and the PBS was discarded and replaced with 400 μl of buffer A (10 mM HEPES, pH 7.9, 0.1 mM EDTA, 0.1 mM EGTA, 10 mM KCl, 1 mM dithiothreitol, and 0.5 mM phenylmethylsulfonyl fluoride) in each tube. The cells were allowed to swell under in the buffer for 15 min on ice. Subsequently, 0.1% Nonidet P-40 was added to each suspension for 1 min to disturb the plasma membrane. The nuclei were precipitated by centrifugation at 13,000 rpm for 1 min at 4°C. The cytoplasmic proteins were collected in the supernatant and stored at −80°C. Two hundred μl of Buffer B (20 mM HEPES, pH 7.9, 1 mM EDTA, 1 mM EGTA, 400 mM NaCl, 1 mM dithiothreitol, and 1 mM phenylmethylsulfonyl fluoride) was added to the pellets and left for 30 min on ice with periodic mixing. The samples were centrifuged at 13,000 rpm for 15 min at 4°C to obtain the nuclear fraction (supernatant). The bicinchoninic acid (BCA) quantification assay was used to determine the concentration of protein in the cell extracts. The Western blot was done as previously described (Tiwari et al., [2013]). Rabbit α-tubulin, 1:4,000 dilution, rabbit Bax (1:1,000), rabbit BAK (1:1,000), rabbit β-Catenin (1:4,000), rabbit DVL3 (1:4,000), mouse β-actin (1:5,000), E-cadherin (1:4,000), and N-cadherin (1:4,000), antibodies were used. Membranes were then washed and incubated for 1 h with horseradish peroxidase-labeled (HRP) anti-rabbit and anti-mouse secondary antibodies (1:5,000 dilutions). ChemiDoc Imaging Systems from Bio-Rad, (Hercules, California USA) was used to detect the blots. Finally, proteins were quantified using the image J software. Data were calculated as ratios to β-actin.
For orientation: Immunoblotting shows a protein as a band on a membrane.

The next assay deals with E-cadherin. Kind of assay: Western blot in HCT116 cells. It counts as cell-based, human. As to conditions: 4 μM, overnight. As to the method:
as §2

The subject of a further assay is c-Myc. Kind of assay: Western blot in HCT116 cells. It counts as cell-based, human. The following applies: 4 μM, p < 0.01 vs control. As to the method:
as §2

The next assay concerns caspase 3. The assay is described as follows: Western blot in HCT116 cells. It counts as cell-based, human. As to conditions: 4 μM, p < 0.05 vs control. As to the method:
as §2

A further assay has as its system N-cadherin. The assay is described as follows: Western blot in HCT116 cells. It counts as cell-based, human. The following applies: 4 μM, p < 0.01 vs control. The procedure: as §2
A further assay concerns cyclin B1. Kind of assay: Western blot in HCT116 cells. The assay is classed as cell-based, human. As to conditions: 4 μM, p < 0.01. The procedure: as §2
The next assay concerns α-tubulin. Kind of assay: Western blot in HCT116 cells. The assay is classed as cell-based, human. The following applies: 4 μM, overnight, p < 0.01 vs vehicle. The procedure:
as §2

For the next assay, the system named is DVL3. The assay is described as follows: Western blot in HCT116 cells. It counts as cell-based, human. The following applies: 4 μM, p < 0.01 vs vehicle. The procedure: as §2
The next assay relates to Bak. Kind of assay: Western blot in HCT116 cells. The following applies: 4 μM, overnight. It counts as cell-based, human. The procedure: as §2
A further assay has as its system Bax (p21 and p18). Kind of assay: Western blot in HCT116 cells. The assay is classed as cell-based, human. As to conditions: 4 μM, overnight, p < 0.001. The procedure:
as §2

Each structure is given as a SMILES string.

For `O=C(/C=C/c1cccc(OCc2ccccc2)c1)c1ccc(O)cc1` [Compound 15k], the IC50 worked out at 1900 ± 900 nM in the assay with S1 and 2300 ± 200 nM with LOVO. For the same compound, in the assay with HCT116 cells [1], the colony formation rate result is reported as “decreased significantly”. The cell morphology result with HCT116 cell is “significantly changed the morphology of the cells from mesenchymal to a more epithelial-like appearance”. The “ROS formation (oxidized DCF fluorescence)” value in the assay on HCT116 cells [2] is on record as “significantly increased ROS formation”. The “levels of Bcl-2” value in the assay on Bcl-2 is “significantly decreased”. The “E-cadherin expression (Western blot)” value in the assay on E-cadherin was “not significantly altered”. Also, the “levels of c-Myc protein” value with c-Myc is listed as “significant decrease”. For the same compound, the “cleavage of total caspase 3” value in the assay with caspase 3 is reported as “induced the cleavage of total caspase”. Besides, the “level of N-cadherin” value in the assay with N-cadherin was “significantly downregulated”. For the same compound, the “expression levels of cyclin B1” value with cyclin B1 is “significant increase”. In the assay with α-tubulin, the “expression of α-tubulin” value is “significant decrease”. Further, the “levels of DVL3” value with DVL3 is recorded as “significantly decreased”. Further, the Bak levels entry in the assay on Bak is reported as “no significant effect”. Besides, the “cleavage of Bax p21 to p18” value in the assay on Bax (p21 and p18) is recorded as “induced the cleavage of the protein Bax (p 21)”.

What is called IC50 is the midpoint of a concentration-inhibition curve.
